Data: patent publication US20260297060A1, “COMPOUNDS FOR THE DEGRADATION OF MUTANT BRAF” (C4 THERAPEUTICS, INC., priority 2023, published 2026)
Like-named read-outs stand apart in the source and are kept apart here.

Assay: Pharmacokinetics after 21 days dosing in the efficacy study (plasma, tumor and brain concentrations; plasma AUC at steady state), Example 14
Format: in vivo, female BALB/c nude mice
Conditions: for Concentration in Brain / concentration at 24 h: 24 h; for Concentration in Brain: BQL: below the lower limit of quantitation; for concentration at 4 h / concentration at 24 h / concentration at 0.25 h / concentration at 0.5 h / concentration at 1 h / concentration at 2 h / concentration at 8 h / concentration at 10 h: mouse, po
Experimental: Agents were tested in the A375 human melanoma xenografts. Compound 26 and Compound 141 were administered to BALB/c nude mice bearing A375 tumors from PG-DO and dosed via PO twice a day (BID) or third a day (TIP) or dosed P daily (QD) from PG-D. Dabrafenib was administered to BALB/c nude mice bearing A375 tumors from PG-D1 and dosed via P daily (QD). Compound 26 was dosed at 1.5 mg/kg (QD), 2 mg/kg (TID), 3 mg/kg (BID), 6 mg/kg (QD) and 10 mg/kg (BID) for 21 days. Compound 141 was dosed at 0.75 mg/kg (BID), 1 mg/kg (TID), 1.5 mg/kg (BID), 3 mg/kg (QD) and 5 mg/kg (BID) for 21 days. Dabrafenib was dosed at 100 mg/kg for 21 days. This study was non-GLP.
The plasma samples were collected at predetermined time points for PK analysis. For non-termination plasma collection: the blood samples were collected into the 1.5 mL Eppendorf tubes containing 3 μL of 0.5 M EDTA-K2. And then the anticoagulant blood samples were centrifuged at 2,500 g at 4° C. for 15 minutes. For termination plasma collection: the mice was euthanized at predetermined time points post the treatment, the blood samples were collected into the 1.5 mL Eppendorf tubes containing 15 μL of 0.5 M EDTA-K2. And then the anticoagulant blood samples were centrifuged at 2,500 g at 4° C. for 15 minutes. The plasma samples were separated into 2 aliquots. The 1st was used for PK analysis, and the 2nd was served as backup.
The tumor samples were collected at predetermined time points for PK and WB analysis. The tumor was dissected out and split into 3 parts. The 1st part was used for PK analysis, the 2nd part was used for WB analysis and the last one was used as backup for the study. The samples were transferred into pre-labeled tubes and quickly froze in liquid nitrogen within 2 minutes after dissection. The samples were stored at −80° C. before analysis.
The brain samples were collected at predetermined time points for PK and potential WB analysis. The brain was dissected out and split into 3 parts (left brain, right brain upper and right brain lower), the left brain was used for PK, the right brain upper was used for WB and the last one was used as the backup for the study. The samples were transferred into pre-labeled tubes and quickly froze in liquid nitrogen within 2 minutes after dissection. The samples were stored at −80° C. before analysis.
The harvested plasma and tumor samples were processed for pharmacokinetics analysis by LC-MS/MS with a concentration range of 1.00-1,000 ng/mL for dabrafenib in plasma and 0.0500-50 ng/mL in tumor and brain homogenate, 5.00-10,000 ng/mL for Compound 141 in plasma and 0.200~200 ng/ml in tumor and brain homogenate. 20.0~20,000 ng/mL for Compound 26 in plasma and 0.5~500 ng/mL for Compound 26 tumor and brain homogenate.
Dabrafenib, Compound 26 and Compound 141 in female BALB/c nude mice plasma (K2-EDTA), tumor and brain homogenate were analyzed by LC-MS/MS (Triple Quad 6500+ Low Mass). Verapamil (5 ng/mL) in acetonitrile: methanol (V: V=95:5) was used as the internal standard for Dabrafenib, Compound 26 and Compound 141 in plasma. Verapamil (0.5 ng/mL) in acetonitrile: methanol (V: V=95:5) was used as the internal standard for Dabrafenib, Compound 26 and Compound 141 in tumor and brain homogenate.
An aliquot of 10 μL unknown sample, calibration standard, quality control, dilute quality control, single blank and double blank samples were added to the 96-well plate. Each sample for Dabrafenib, Compound 26 and Compound 141 in plasma (except the double blank) was quenched with 200 μL IS respectively (double blank sample was quenched with 200 μL ACN: MeOH (V: V=95:5)); each sample for Dabrafenib, Compound 26 and Compound 141 in tumor and brain(except the double blank) was quenched with 100 μL IS respectively (double blank sample was quenched with 100 μL ACN: MeOH (V: V=95:5)); and then the mixture was vortex-mixed for 5 min at 800 rpm and centrifuged for 15 min at 3220 g (4000 rpm), 4° C. […]

[1] = plasma, 0.75 mg/kg p.o. BID x 21 days, mean ± SEM
[2] = plasma, 0.75 mg/kg p.o. BID x 21 days, mean ± SEM, read-out: Concentration in Plasma
[3] = plasma, 1 mg/kg p.o. TID x 21 days, mean ± SEM
[4] = plasma, 1 mg/kg p.o. TID x 21 days, mean ± SEM, read-out: Concentration in Plasma
[5] = plasma, 1.5 mg/kg p.o. BID x 21 days, mean ± SEM
[6] = plasma, 1.5 mg/kg p.o. BID x 21 days, mean ± SEM, read-out: Concentration in Plasma
[7] = plasma, 3 mg/kg p.o. QD x 21 days, mean ± SEM
[8] = plasma, 3 mg/kg p.o. QD x 21 days, mean ± SEM, read-out: Concentration in Plasma
[9] = plasma, 5 mg/kg p.o. BID x 21 days, mean ± SEM
[10] = plasma, 5 mg/kg p.o. BID x 21 days, mean ± SEM, read-out: Concentration in Plasma
[11] = tumor, 1 mg/kg p.o. TID x 21 days, mean ± SEM, read-out: Concentration in Tumor
[12] = tumor, 1.5 mg/kg p.o. BID x 21 days, mean ± SEM, read-out: Concentration in Tumor

For `CCN(C)S(=O)(=O)Nc1ccc(F)c(Oc2ccc3ncn(C4CC5(CCN(C6CC7(C6)CN(c6cc8c(cc6F)c(N6CCC(=O)NC6=O)nn8C)C7)CC5)C4)c(=O)c3c2)c1C#N` (stereo not drawn) [Compound 141, 6-[2-cyano-3-[[ethyl(methyl)sulfamoyl]amino]-6-fluoro-phenoxy]-3-[7-[2-[3-(2,4-dioxohexahydropyrimidin-1-yl)-5-fluoro-1-methyl-indazol-6-yl]-2-azaspiro[3.3]heptan-6-yl]-7-azaspiro[3.5]nonan-2-yl]-4-oxo-quinazoline], the “Concentration in Brain” value (0.75 mg/kg p.o. BID x 21 days) was “BQL”, the “Concentration in Brain” value (1 mg/kg p.o. TID x 21 days) was “BQL” and the “Concentration in Brain” value (1.5 mg/kg p.o. BID x 21 days) was “BQL”. The “Concentration in Brain” value (3 mg/kg p.o. QD x 21 days) was “BQL”, the concentration at 4 h (brain, 0.75 mg/kg p.o. BID x 21 days, mean ± SEM, read-out: Concentration in Brain) was 10.7 ± 2.04 ng/g and the concentration at 4 h (brain, 1 mg/kg p.o. TID x 21 days, mean ± SEM, read-out: Concentration in Brain) was 12.4 ± 2.79 ng/g. For the same molecule, the concentration at 4 h (brain, 1.5 mg/kg p.o. BID x 21 days, mean ± SEM, read-out: Concentration in Brain) was 10.1 ± 1.79 ng/g, the concentration at 4 h (brain, 3 mg/kg p.o. QD x 21 days, mean ± SEM, read-out: Concentration in Brain) was 22.9 ± 2.7 ng/g and the concentration at 4 h (brain, 5 mg/kg p.o. BID x 21 days, mean ± SEM, read-out: Concentration in Brain) was 51.4 ± 21.7 ng/g. It also gave a concentration at 24 h (brain, 5 mg/kg p.o. BID x 21 days, read-out: Concentration in Brain) of 2.25 ng/g, a concentration at 0.25 h [1] of 369 ± 64.7 ng/mL and a concentration at 0.5 h [1] of 732 ± 139 ng/mL. For the same molecule, the concentration at 1 h [1] was 1140 ± 226 ng/mL, the concentration at 2 h [1] was 1280 ± 277 ng/mL and the concentration at 4 h [2] was 663 ± 79 ng/mL. For the same molecule, the concentration at 8 h [1] was 432 ± 45.3 ng/mL, the concentration at 10 h [1] was 343 ± 34.9 ng/mL and the concentration at 24 h [2] was 10.8 ± 2.44 ng/mL. For the same molecule, the concentration at 0.25 h [3] was 950 ± 130 ng/mL, the concentration at 0.5 h [3] was 1750 ± 165 ng/mL and the concentration at 1 h [3] was 1930 ± 416 ng/mL. The concentration at 2 h [3] was 1760 ± 262 ng/mL, the concentration at 4 h [4] was 850 ± 185 ng/mL and the concentration at 8 h [3] was 780 ± 53.4 ng/mL. The concentration at 10 h [3] was 676 ± 42.5 ng/mL, the concentration at 24 h [4] was 33.7 ± 4.48 ng/mL and the concentration at 0.25 h [5] was 702 ± 91.7 ng/mL. It also gave a concentration at 0.5 h [5] of 1360 ± 270 ng/mL, a concentration at 1 h [5] of 1940 ± 211 ng/mL and a concentration at 2 h [5] of 2120 ± 241 ng/mL. The concentration at 4 h [6] was 950 ± 365 ng/mL, the concentration at 8 h [5] was 523 ± 19.7 ng/mL and the concentration at 10 h [5] was 328 ± 12.4 ng/mL. It also gave a concentration at 24 h [6] of 11.2 ± 2.61 ng/mL, a concentration at 0.25 h [7] of 1580 ± 247 ng/mL and a concentration at 0.5 h [7] of 2850 ± 361 ng/mL. It also gave a concentration at 1 h [7] of 5130 ± 799 ng/mL, a concentration at 2 h [7] of 5290 ± 555 ng/mL and a concentration at 4 h [8] of 2430 ± 222 ng/mL. The concentration at 8 h [7] was 869 ± 101 ng/mL, the concentration at 10 h [7] was 617 ± 41.7 ng/mL and the concentration at 24 h [8] was 12.2 ± 1.4 ng/mL. It also gave a concentration at 0.25 h [9] of 2930 ± 226 ng/mL, a concentration at 0.5 h [9] of 6300 ± 457 ng/mL and a concentration at 1 h [9] of 6340 ± 1160 ng/mL. It also gave a concentration at 2 h [9] of 6130 ± 1280 ng/mL, a concentration at 4 h [10] of 3730 ± 1140 ng/mL and a concentration at 8 h [9] of 3260 ± 243 ng/mL. For the same molecule, the concentration at 10 h [9] was 2370 ± 37.1 ng/mL, the concentration at 24 h [10] was 38.9 ± 5.18 ng/mL and the concentration at 4 h (tumor, 0.75 mg/kg p.o. BID x 21 days, mean ± SEM, read-out: Concentration in Tumor) was 160 ± 24.9 ng/g. It also gave a concentration at 24 h (tumor, 0.75 mg/kg p.o. BID x 21 days, read-out: Concentration in Tumor) of 33 ng/g, a concentration at 4 h [11] of 390 ± 107 ng/g and a concentration at 24 h [11] of 14.3 ± 4.44 ng/g. The concentration at 4 h [12] was 317 ± 61.6 ng/g, the concentration at 24 h [12] was 6.7 ng/g and the concentration at 4 h (tumor, 3 mg/kg p.o. QD x 21 days, mean ± SEM, read-out: Concentration in Tumor) was 909 ± 165 ng/g. The concentration at 24 h (tumor, 3 mg/kg p.o. QD x 21 days, read-out: Concentration in Tumor) was 3.01 ng/g, the concentration at 4 h (tumor, 5 mg/kg p.o. BID x 21 days, mean ± SEM, read-out: Concentration in Tumor) was 1300 ± 471 ng/g and the concentration at 24 h (tumor, 5 mg/kg p.o. BID x 21 days, read-out: Concentration in Tumor) was 79.3 ng/g.
